Measured values from US20050209157A1, “Short bioactive peptides and methods for their use” (priority 2001, published 2005).
In brackets after ≈: the same amount, converted by molar mass. No end group written: not given here.

System: S. typhimurium 14028S
Assay: not given
Format: cell-based, Salmonella typhimurium
Conditions: Table 11

| Molecule | MIC S. typhimurium 14028S |
| --- | --- |
| FAKKLKKLAKKL-NH2 [P79 (54)] | > 128 mg/L |
| FALAKKALKKAKKAL-NH2 [P40 (22)] | > 128 mg/L |
| FAKKALKALKKL-NH2 [P47 (29)] | > 128 mg/L |
| FALALKLAKKAL-NH2 [P167 (128)] | 64 mg/L |
| VAKLLAKLAKKVL-NH2 [P154 (116)] | > 128 mg/L |
| FALALKALKK-NH2 [P169 (130)] | 64 mg/L |
| FAKLLAKALKLKL-NH2 [P101 (65)] | 128 mg/L |
| FAKLLAKALKKL-NH2 [P103 (67)] | 128 mg/L |
| FAKKLAKLAKKL-NH2 [P106 (70)] | > 128 mg/L |
| FAKLLAKFLKKAL-NH2 [P113 (77)] | 44 mg/L |
| FAKKLAKKLAKAL-NH2 [P74 (50)] | 64 mg/L |
| FKLAFKLAKKAFL-NH2 [P122 (84)] | 128 mg/L |
| FAKLLAKLAKKL-NH2 [P49 (31)] | 64 mg/L |
| FAKKLAKKAKLAKKL-NH2 [P77 (53)] | > 128 mg/L |

Same assay, conditions: Table 14

| Molecule | MIC S. typhimurium 14028S |
| --- | --- |
| FALALKALKK-NH2 [P169 (130)] | 64 mg/L |

System: Candida albicans 105
Assay: not given
Format: cell-based
Conditions: Table 10; in µg/mL

| Molecule | MIC C. albicans 105 |
| --- | --- |
| FAKKLKKLAKKL-NH2 [P79 (54)] | 32 |
| FALAKKALKKAKKAL-NH2 [P40 (22)] | 32 |
| FAKKALKALKKL-NH2 [P47 (29)] | 32 |
| FALALKLAKKAL-NH2 [P167 (128)] | 64 |
| VAKLLAKLAKKVL-NH2 [P154 (116)] | 64 |
| FALALKALKK-NH2 [P169 (130)] | 64 |
| FAKLLAKALKLKL-NH2 [P101 (65)] | 32 |
| FAKLLAKALKKL-NH2 [P103 (67)] | 16 |
| FAKKLAKLAKKL-NH2 [P106 (70)] | 32 |
| FAKLLAKFLKKAL-NH2 [P113 (77)] | 32 |
| FAKKLAKKLAKAL-NH2 [P74 (50)] | 16 |
| FKLAFKLAKKAFL-NH2 [P122 (84)] | 32 |
| FAKLLAKLAKKL-NH2 [P49 (31)] | 16 |
| FAKKLAKKAKLAKKL-NH2 [P77 (53)] | 16 |

Same assay, conditions: Table 15; in µg/mL

| Molecule | MIC C. albicans 105 |
| --- | --- |
| FALALKALKK-NH2 [P169 (130)] | 64 |

System: Candida glabrata ATCC15126
Assay: Antimicrobial assays II, NCCLS broth microdilution MIC
Format: cell-based
Conditions: Table 10; in µg/mL

| Molecule | MIC C. glabrata ATCC15126 |
| --- | --- |
| FAKKLKKLAKKL-NH2 [P79 (54)] | 128 |
| FALAKKALKKAKKAL-NH2 [P40 (22)] | 32 |
| FAKKALKALKKL-NH2 [P47 (29)] | 64 |
| FALALKLAKKAL-NH2 [P167 (128)] | 128 |
| VAKLLAKLAKKVL-NH2 [P154 (116)] | 128 |
| FALALKALKK-NH2 [P169 (130)] | 128 |
| FAKLLAKALKLKL-NH2 [P101 (65)] | 32 |
| FAKLLAKALKKL-NH2 [P103 (67)] | 16 |
| FAKKLAKLAKKL-NH2 [P106 (70)] | 64 |
| FAKLLAKFLKKAL-NH2 [P113 (77)] | 32 |
| FAKKLAKKLAKAL-NH2 [P74 (50)] | 16 |
| FKLAFKLAKKAFL-NH2 [P122 (84)] | 64 |
| FAKLLAKLAKKL-NH2 [P49 (31)] | 16 |
| FAKKLAKKAKLAKKL-NH2 [P77 (53)] | 64 |

System: P. aeruginosa H374
Assay: not given
Format: cell-based, Pseudomonas aeruginosa
Conditions: Table 14; in µg/mL

| Molecule | MIC P. aeruginosa H374 |
| --- | --- |
| FALALKALKK-NH2 [P169 (130)] | 128 |

System: E. coli UB1005
Assay: not given
Format: cell-based, Escherichia coli
Conditions: Table 11

| Molecule | MIC E. coli UB1005 |
| --- | --- |
| FAKKLKKLAKKL-NH2 [P79 (54)] | 32 mg/L |
| FALAKKALKKAKKAL-NH2 [P40 (22)] | 64 mg/L |
| FAKKALKALKKL-NH2 [P47 (29)] | 64 mg/L |
| FALALKLAKKAL-NH2 [P167 (128)] | 32 mg/L |
| VAKLLAKLAKKVL-NH2 [P154 (116)] | 64 mg/L |
| FALALKALKK-NH2 [P169 (130)] | 32 mg/L |
| FAKLLAKALKLKL-NH2 [P101 (65)] | 32 mg/L |
| FAKLLAKALKKL-NH2 [P103 (67)] | 32 mg/L |
| FAKKLAKLAKKL-NH2 [P106 (70)] | 64 mg/L |
| FAKLLAKFLKKAL-NH2 [P113 (77)] | 32 mg/L |
| FAKKLAKKLAKAL-NH2 [P74 (50)] | 16 mg/L |
| FKLAFKLAKKAFL-NH2 [P122 (84)] | 64 mg/L |
| FAKLLAKLAKKL-NH2 [P49 (31)] | 32 mg/L |
| FAKKLAKKAKLAKKL-NH2 [P77 (53)] | 64 mg/L |

Same assay, conditions: Table 14

| Molecule | MIC E. coli UB1005 |
| --- | --- |
| FALALKALKK-NH2 [P169 (130)] | 64 mg/L |

System: Pseudomonas aeruginosa H187
Assay: not given
Format: cell-based
Conditions: Table 11; in µg/mL

| Molecule | MIC P. aeruginosa H187 |
| --- | --- |
| FAKKLKKLAKKL-NH2 [P79 (54)] | >128 |
| FALAKKALKKAKKAL-NH2 [P40 (22)] | >128 |
| FAKKALKALKKL-NH2 [P47 (29)] | 64-128 |
| FALALKLAKKAL-NH2 [P167 (128)] | 128 |
| VAKLLAKLAKKVL-NH2 [P154 (116)] | >128 |
| FALALKALKK-NH2 [P169 (130)] | 128 |
| FAKLLAKALKLKL-NH2 [P101 (65)] | 32-128 |
| FAKLLAKALKKL-NH2 [P103 (67)] | 64 |
| FAKKLAKLAKKL-NH2 [P106 (70)] | >128 |
| FAKLLAKFLKKAL-NH2 [P113 (77)] | 32-128 |
| FAKKLAKKLAKAL-NH2 [P74 (50)] | 32-128 |
| FKLAFKLAKKAFL-NH2 [P122 (84)] | 32-128 |
| FAKLLAKLAKKL-NH2 [P49 (31)] | 16-64 |
| FAKKLAKKAKLAKKL-NH2 [P77 (53)] | 64-128 |

Same assay, conditions: Table 15; in µg/mL

| Molecule | MIC P. aeruginosa H187 |
| --- | --- |
| FALALKALKK-NH2 [P169 (130)] | >128 |

System: Staph. aureus 29213
Assay: microbe, parasite or virus in culture
Conditions: Staphylococcus aureus, 29213, read-out: MBC, Without peptide
Source text: This experiment determined the peptide MBC in the absence of the antimicrobial agent, or in the presence of the indicated concentration of antimicrobial agent

| Molecule | MBC |
| --- | --- |
| CC1(C)S[C@@H]2[C@H](NC(=O)[C@H](N)c3ccccc3)C(=O)N2[C@H]1C(=O)O [Ampicillin] | 5 mg/L (≈ 14.3 µM) |
| NC[C@H]1O[C@H](O[C@H]2[C@H](O)[C@@H](O[C@H]3O[C@H](CO)[C@@H](O)[C@H](N)[C@H]3O)[C@H](N)C[C@@H]2N)[C@H](N)C[C@@H]1O [Tobramycin] | 25 mg/L (≈ 53.5 µM) |

Same assay, conditions: with 5 μg/mL peptide Shiva-10

| Molecule | MBC, With 5 μg/mL peptide |
| --- | --- |
| CC1(C)S[C@@H]2[C@H](NC(=O)[C@H](N)c3ccccc3)C(=O)N2[C@H]1C(=O)O [Ampicillin] | 2.5 mg/L (≈ 7.15 µM) |
| NC[C@H]1O[C@H](O[C@H]2[C@H](O)[C@@H](O[C@H]3O[C@H](CO)[C@@H](O)[C@H](N)[C@H]3O)[C@H](N)C[C@@H]2N)[C@H](N)C[C@@H]1O [Tobramycin] | 10 mg/L (≈ 21.4 µM) |

System: Candida tropicalis ATCC13803
Assay: Antimicrobial assays II, NCCLS broth microdilution MIC
Format: cell-based
Conditions: Table 10
Description: Anti-microbial activity against a broader range of pathogens (including clinical strains) than were tested in Example 2. It should be noted that somewhat different protocols were employed for the assays in Example 2 and Example 3.
MICs were determined for this Example using a slightly modified version of the NCCLS (National Committee for Clinical Laboratory Standards) broth microdilution method as described previously (Steinberg et al., AAC 41: 1738, 1997). Briefly, antimicrobial agents were prepared as 10× concentrates in the most appropriate solvent. For the peptide, 0.01% acetic acid containing 0.2% bovine serum albumin as a carrier protein was used. Inocula were prepared by resuspending colonies from a BAP in medium and adjusting the suspension to match that of a 0.5 McFarland standard. The suspension was diluted into fresh medium (as recommended by NCCLS for the organism) to give 2×10^5 to 7×10^5 CFU/ml for bacteria or 2×10^3 to 7×10^3 CFU/ml for Candida. After dispensing 100 μl aliquots of the microbial suspension into each well of a 96-well polypropylene microtiter plate, 11 μl of test compound was added. […] For facultative anaerobes incubation was performed in 7% carbon dioxide and for strict anaerobes in an oxygen free environment maintained using a standard anaerobic “jar”. All MICs were performed three times and the mean value determined.

| Molecule | MIC C. tropicalis ATCC13803 |
| --- | --- |
| FAKKLKKLAKKL-NH2 [P79 (54)] | 2 mg/L |
| FALAKKALKKAKKAL-NH2 [P40 (22)] | 1 mg/L |
| FAKKALKALKKL-NH2 [P47 (29)] | 1 mg/L |
| FALALKLAKKAL-NH2 [P167 (128)] | 8 mg/L |
| VAKLLAKLAKKVL-NH2 [P154 (116)] | 8 mg/L |
| FALALKALKK-NH2 [P169 (130)] | 8 mg/L |
| FAKLLAKALKLKL-NH2 [P101 (65)] | 4 mg/L |
| FAKLLAKALKKL-NH2 [P103 (67)] | 2 mg/L |
| FAKKLAKLAKKL-NH2 [P106 (70)] | 2 mg/L |
| FAKLLAKFLKKAL-NH2 [P113 (77)] | 4 mg/L |
| FAKKLAKKLAKAL-NH2 [P74 (50)] | 1 mg/L |
| FKLAFKLAKKAFL-NH2 [P122 (84)] | 4 mg/L |
| FAKLLAKLAKKL-NH2 [P49 (31)] | 2 mg/L |
| FAKKLAKKAKLAKKL-NH2 [P77 (53)] | 1 mg/L |

System: S. epidermidis C621
Assay: not given
Format: cell-based, Staphylococcus epidermidis
Conditions: Table 15

| Molecule | MIC S. epidermidis C621 |
| --- | --- |
| FALALKALKK-NH2 [P169 (130)] | 32 mg/L |

System: S. aureus (MRSA)
Assay: not given
Format: cell-based, Staphylococcus aureus
Conditions: Table 11, strain SAP0017; in µg/mL

| Molecule | MIC S. aureus SAP0017 |
| --- | --- |
| FAKKLKKLAKKL-NH2 [P79 (54)] | >128 |
| FALAKKALKKAKKAL-NH2 [P40 (22)] | >128 |
| FAKKALKALKKL-NH2 [P47 (29)] | >128 |
| FALALKLAKKAL-NH2 [P167 (128)] | 128 |
| VAKLLAKLAKKVL-NH2 [P154 (116)] | >128 |
| FALALKALKK-NH2 [P169 (130)] | >128 |
| FAKLLAKALKLKL-NH2 [P101 (65)] | 128 |
| FAKLLAKALKKL-NH2 [P103 (67)] | 64 |
| FAKKLAKLAKKL-NH2 [P106 (70)] | >128 |
| FAKLLAKFLKKAL-NH2 [P113 (77)] | 32 |
| FAKKLAKKLAKAL-NH2 [P74 (50)] | >128 |
| FKLAFKLAKKAFL-NH2 [P122 (84)] | 128 |
| FAKLLAKLAKKL-NH2 [P49 (31)] | 64 |
| FAKKLAKKAKLAKKL-NH2 [P77 (53)] | >128 |

Same assay, conditions: Table 15, strain SAP0017; in µg/mL

| Molecule | MIC S. aureus SAP0017 |
| --- | --- |
| FALALKALKK-NH2 [P169 (130)] | >128 |
